From ChEMBL document CHEMBL4742400, “Protein kinase mkk4 inhibitors for promoting liver regeneration or reducing or preventing hepatocyte death” (2019)

How the values were obtained:
Homo sapiens [1] = species: Homo sapiens; experiment: (§1) Selectivity index, ratio of inhibition of full length human JNK1 (M1 to Q384 residues) expressed in mammalian expression system assessed as residual percent of control binding at 100 nM relative to control to inhibition of partial length human MKK4 (S84 to D399 residues) expressed in mammalian expression system assessed as residual percent of control binding at 100 nM relative to control
Homo sapiens [2] = species: Homo sapiens; experiment: as §1, with “MKK7” for “JNK1”, “R419” for “Q384”
Homo sapiens [3] = species: Homo sapiens; experiment: Selectivity index, ratio of inhibition of B-raf (unknown origin) to inhibition of partial length human MKK4 (S84 to D399 residues) expressed in mammalian expression system assessed as residual percent of control binding at 100 nM relative to control

Selectivity ratio (Homo sapiens [1]) | Selectivity ratio (Homo sapiens [2]) | Selectivity ratio (Homo sapiens [3]) | SMILES
> 30 | > 30 | 10 | CCCS(=O)(=O)Nc1ccc(F)c(C(=O)c2n[nH]c3ncc(-c4ccccc4F)cc23)c1F
> 30 | 3 | < 3 | CCCS(=O)(=O)Nc1ccc(F)c(C(=O)c2n[nH]c3ncc(-c4ccc(Cl)c(C(F)(F)F)c4)cc23)c1F
3 | 3 | < 3 | CCCS(=O)(=O)Nc1ccc(F)c(C(=O)c2n[nH]c3ncc(-c4cccc(N(C)C)c4)cc23)c1F
3 | 3 | < 3 | CCCS(=O)(=O)Nc1ccc(F)c(C(=O)c2n[nH]c3ncc(-c4cccc([N+](=O)[O-])c4)cc23)c1F
> 30 | > 30 | 10 | CCCS(=O)(=O)Nc1ccc(F)c(C(=O)c2n[nH]c3ncc(-c4ccc(O)cc4)cc23)c1F
> 30 | > 30 | < 3 | CCCS(=O)(=O)Nc1ccc(F)c(C(=O)c2n[nH]c3ncc(-c4ccc(S(=O)(=O)NC(C)=O)cc4)cc23)c1F
10 | 10 | < 3 | CCCS(=O)(=O)Nc1ccc(F)c(C(=O)c2n[nH]c3ncc(-c4cccc(F)c4)cc23)c1F
10 | 10 | < 3 | CCCS(=O)(=O)Nc1ccc(F)c(C(=O)c2n[nH]c3ncc(-c4ccc(OC)cc4)cc23)c1F
> 30 | > 30 | < 3 | CCCS(=O)(=O)Nc1ccc(F)c(C(=O)c2n[nH]c3ncc(-c4ccc(N(C)C)cc4)cc23)c1F
10 | > 30 | > 30 | CCCS(=O)(=O)Nc1ccc(F)c(C(=O)c2n[nH]c3ncc(-c4ccccc4OC)cc23)c1F
3 | 3 | < 3 | CCCS(=O)(=O)Nc1ccc(F)c(C(=O)c2n[nH]c3ncc(-c4cccc(C)c4)cc23)c1F
> 30 | > 30 | < 3 | CCCS(=O)(=O)Nc1ccc(F)c(C(=O)c2n[nH]c3ncc(-c4cccc(N)c4)cc23)c1F
3 | 3 | 3 | CCCS(=O)(=O)Nc1ccc(F)c(C(=O)c2n[nH]c3ncc(-c4ccc(C(C)C)cc4)cc23)c1F
< 3 | < 3 | < 3 | CCCS(=O)(=O)Nc1ccc(F)c(C(=O)c2n[nH]c3ncc(-c4cccc(Cl)c4)cc23)c1F
10 | 10 | < 3 | CCCS(=O)(=O)Nc1ccc(F)c(C(=O)c2n[nH]c3ncc(-c4ccc(C)cc4)cc23)c1F
> 30 | > 30 | 3 | CCCS(=O)(=O)Nc1ccc(F)c(C(=O)c2n[nH]c3ncc(-c4ccc(C(N)=O)cc4)cc23)c1F
< 3 | < 3 | < 3 | CCCS(=O)(=O)Nc1ccc(F)c([S+]([O-])c2n[nH]c3ncc(-c4ccc(Cl)cc4)cc23)c1F (stereo unspecified)
> 30 | > 30 | 3 | CCCS(=O)(=O)Nc1ccc(F)c(C(=O)c2n[nH]c3ncc(-c4ccc(-c5nnn[nH]5)cc4)cc23)c1F
> 30 | > 30 | < 3 | CCCS(=O)(=O)Nc1ccc(F)c(C(=O)c2n[nH]c3ncc(-c4ccc(S(C)(=O)=O)cc4)cc23)c1F
10 | < 3 | < 3 | CCCS(=O)(=O)Nc1ccc(F)c(C(=O)c2n[nH]c3ncc(-c4ccc(Cl)c(Cl)c4)cc23)c1F
3 | 3 | 3 | CCCS(=O)(=O)Nc1ccc(F)c(C(=O)c2n[nH]c3ncc(-c4ccc(Cl)cc4Cl)cc23)c1F
10 | 10 | 3 | CCCS(=O)(=O)Nc1ccc(F)c(C(=O)c2n[nH]c3ncc(-c4ccc([N+](=O)[O-])cc4)cc23)c1F

Selectivity ratio (Homo sapiens [1]) | Selectivity ratio (Homo sapiens [2]) | Selectivity ratio (Homo sapiens [3]) | SMILES
< 3 | < 3 | < 3 | CCCS(=O)(=O)Nc1ccc(F)c(NC(=O)c2n[nH]c3ncc(-c4ccc(Cl)cc4)cc23)c1F
< 3 | 3 | 3 | CCCCS(=O)(=O)Nc1cccc(C(=O)c2n[nH]c3ncc(-c4ccc5c(c4)OCCO5)cc23)c1F
3 | 3 | < 3 | CCCS(=O)(=O)Nc1ccc(F)c(C(=O)c2n[nH]c3ncc(-c4ccc(C(F)(F)F)cc4)cc23)c1F
< 3 | < 3 | < 3 | CCCS(=O)(=O)Nc1ccc(F)c(C(=O)c2n[nH]c3ncc(-c4cccc(C(F)(F)F)c4)cc23)c1F
< 3 | < 3 | < 3 | CCCS(=O)(=O)Nc1ccc(F)c(Cc2n[nH]c3ncc(-c4ccc(Cl)cc4)cc23)c1F
< 3 | < 3 | < 3 | CCCS(=O)(=O)Nc1ccc(F)c(S(=O)(=O)c2n[nH]c3ncc(-c4ccc(Cl)cc4)cc23)c1F
< 3 | < 3 | < 3 | CCCS(=O)(=O)Nc1ccc(F)c(Sc2n[nH]c3ncc(-c4ccc(Cl)cc4)cc23)c1F
< 3 | < 3 | < 3 | CCCS(=O)(=O)Nc1ccc(F)c(C(=O)c2n[nH]c3ncc(-c4cc(Cl)cc(Cl)c4)cc23)c1F
10 | 10 | 3 | CCCS(=O)(=O)Nc1ccc(F)c(C(=O)c2n[nH]c3ncc(-c4cccc(OC)c4)cc23)c1F
> 30 | > 30 | > 30 | O=C(c1ccc(F)c(NS(=O)(=O)Cc2ccccc2)c1F)c1n[nH]c2ncc(-c3ccncc3)cc12
< 3 | < 3 | < 3 | CCCS(=O)(=O)Nc1ccc(F)c(C(=O)c2n[nH]c3ncc(-c4ccc(C(C)(C)C)cc4)cc23)c1F
> 30 | > 30 | 10 | CCCS(=O)(=O)Nc1ccc(F)c(C(=O)c2n[nH]c3ncc(-c4ccc(C(=O)O)cc4)cc23)c1F
10 | 10 | 3 | CCCS(=O)(=O)Nc1ccc(F)c(C(=O)c2n[nH]c3ncc(-c4ccccc4C)cc23)c1F
10 | 10 | 3 | CCCS(=O)(=O)Nc1ccc(F)c(C(=O)c2n[nH]c3ncc(-c4ccccc4Cl)cc23)c1F
3 | 10 | 3 | CCCS(=O)(=O)Nc1ccc(F)c(C(=O)c2n[nH]c3ncc(-c4ccccc4O)cc23)c1F
3 | 3 | < 3 | CCCS(=O)(=O)Nc1ccc(F)c(C(=O)c2n[nH]c3ncc(-c4ccc(C)c(C)c4)cc23)c1F
3 | > 30 | 3 | CCCS(=O)(=O)Nc1ccc(F)c(C(=O)c2n[nH]c3ncc(-c4cccc(O)c4)cc23)c1F
3 | 3 | 3 | CCCS(=O)(=O)Nc1ccc(F)c(C(=O)c2n[nH]c3ncc(-c4ccccc4N)cc23)c1F
> 30 | > 30 | > 30 | CCCS(=O)(=O)Nc1c(F)ccc(C(=O)c2n[nH]c3ncc(-c4ccc(C(=O)O)cc4)cc23)c1F
> 30 | > 30 | 10 | CCCS(=O)(=O)Nc1ccc(F)c(C(=O)c2n[nH]c3ncc(-c4ccc(N)cc4)cc23)c1F
> 30 | > 30 | 10 | CCCS(=O)(=O)Nc1ccc(F)c(C(=O)c2n[nH]c3ncc(-c4ccc(F)cc4)cc23)c1F
> 30 | > 30 | 3 | CCCS(=O)(=O)Nc1ccc(F)c(C(=O)c2n[nH]c3ncc(-c4ccc(S(N)(=O)=O)cc4)cc23)c1F

SMILES | Selectivity ratio (Homo sapiens [1]) | Selectivity ratio (Homo sapiens [2]) | Selectivity ratio (Homo sapiens [3])
CCCS(=O)(=O)Nc1ccc(F)c(C(=O)c2n[nH]c3ncc(-c4ccc(S(=O)(=O)NCC(O)CO)cc4)cc23)c1F (stereo unspecified) | > 30 | > 30 | < 3
CCCS(=O)(=O)Nc1ccc(F)c(C(=O)c2n[nH]c3ncc(-c4ccccc4)cc23)c1F | 10 | > 30 | 10
CCCS(=O)(=O)Nc1ccc(F)c(C(=O)c2n[nH]c3ncc(-c4ccc(C(=O)NCC(O)CO)cc4)cc23)c1F (stereo unspecified) | > 30 | > 30 | < 3
